Data set [1] can be described thus: Pharmacokinetics following a single dose in rat (1 mg/kg iv, 3 mg/kg oral), LC-MS/MS, one-compartment model. It is filed as in vivo. On the procedure:
Compounds were administered as a single dose (either 1 mg/kg bodyweight in 5% DMSO via the intravenous route or 3 mg/kg in 1% carboxymethylcellulose via the oral route) to three adult rats (using different rats for each compound and each route of administration).
Blood was then sampled at various time points (including just prior to dose administration) out to 24 hrs post dose, and the level of the various compounds was assessed using a validated LC-MS/MS assay. Briefly, 3-5 μl of the deproteinised sample was applied to a Waters Atlantis (C18 20×2.1 mm, 3 μm bead size) reverse phase chromatography column equilibrated in 0.1% formic acid in 95:5 water:actetonitrile. Over 3.5 minutes bound material was gradient eluted reaching 0.1% formic acid in 5:95 water:acetonitrile, followed by a step gradient back to 0.1% formic acid in 95:5 water:acetonitrile. The column eluent was then directed to an Applied Biosystems API 4000/3200 QTrap MS/MS mass spectrometer, with a TurboIonspray™ ion source operating in positive ion mode. The interface temperature was set at 650° C., with a 40 ms dwell time for each MRM transition, monitoring the following ions:
The internal standard in each determination was the related compound (S)-3-(2′,2′-dimethyl-propanoylamino)-caprolactam, which was spiked into the sample prior to deproteinization. The lower limit of quantitation (LLOQ) for this assay was 2.4 ng/ml for each compound except (I′), where it was 38.1 ng/ml.
Following LC-MS/MS analysis of each collected sample, the pharmacokinetic disposition of the compound was modelled using Kinetica software, a well known software package for such applications.
Compounds (VI) and (VII) were subject to pharmacokinetic analysis in rat using exactly the same protocols previous applied for compounds (I) through (V) in example 1.
We therefore subjected (VIII) to pharmacokinetic analysis in rat using exactly the same protocols previous applied for compounds (I′) through (VII) in examples 1 and 7.
The isolated (R)-enantiomer of (I) was therefore synthesised (exactly as described herein for the isolated (S)-enantiomer, but replacing the (S)-ornithine starting material with commercially available (R)-ornithine of high stereochemical purity), and the PK properties of this agent, in rat, was determined using the identical methodology described above (see Examples 1, 7 and 8).

For data set [2], the system named is RANTES induced migration of THP-1 cells. The data set can be described thus: ChemoTx transwell migration assay, RANTES induced migration of THP-1 cells. It is filed as cell-based. Conditions: Homo sapiens; THP-1 cell line; maximal dose of chemoattractant; read-out: ED50 RANTES induced migration. On the procedure: In principle, this assay consists of two chambers separated by a porous membrane. The chemoattractant is placed in the lower compartment and the cells are placed in the upper compartment. After incubation for a period at 37° C. the cells move towards the chemoattractant, and the number of cells in the lower compartment is proportional to the chemoattractant activity (relative to a series of controls).
Next, the chemoattractant solution to be placed in the lower compartment is prepared. For example, MCP-1 is diluted in GBSS+BSA to give a final concentration of 25 ng/ml. This is divided into two pots, as for the cell suspension. To one pot, the test compound is added to the same final concentration as was added to the cell suspension, while to the other pot an equal volume of GBSS+BSA plus vehicle as appropriate (e.g., not more than 1% DMSO) is added. Alternatively, other chemokines may be used (SDF-1α at 7.5 ng/ml; RANTES at 50 ng/ml; IL-8 at 10 ng/ml using neutrophils as the target cell population). […]
The impact of the test substance is calculated by comparing the chemoattractant-induced migration which occurred in the presence or absence of various concentrations of the test substance. Typically, the inhibition of migration is expressed as a percentage of the total chemoattractant-induced migration which was blocked by the presence of the compound. […]

As for `CC(C)(C)C(=O)N[C@H]1CCCNC1=O` [Compound (I′), (S)-3-(2′,2′-dimethylpropanoylamino)-tetrahydropyridin-2-one], in data set [1], the “clearance, times lower than for the other lactam BSCIs” value is given as “more than 10 times” and the “plasma half-life, fold longer than the other compounds” value was 10 fold. Also, in data set [1] (blood, single oral dose 3 mg/kg in 1% CMC, Tables 7-9, read-out: Exposure (min · ng/ml), oral exposure AUC 0-t (converted)), the AUC(0-t) was 15600 ng·h/mL. The “oral exposure, fold higher than the next best compound (V)” value in data set [1] (oral 3 mg/kg) is listed as roughly 20 fold. Also, the EC50 in data set [2] came to 0.08 nM.
Take `O=C1NCCCC[C@@H]1NC(=O)C12CC3CC(CC(O)(C3)C1)C2` [Compound (V), 3-(3′-hydroxyadamantyl-1-carbonylamino)-caprolactam]: the “minor t½β” value in data set [1] was found to be 110 min. The EC50 in data set [2] was 0.25 nM.
